In patent US11649255B2, “Indazoles as hematopoietic progenitor kinase 1 (HPK1) inhibitors and methods using same” (1st Biotherapeutics, Inc., priority 2020, dated 2023):
Like-named read-outs stand apart in the source and are kept apart here.

What was measured:
recombinant human HPK1 = recombinant human HPK1 (Homo sapiens (Human), UniProt Q92918); experiment: HPK1 kinase assay (ADP-Glo); assay type: biochemical; conditions: 25 μM ATP, MBP substrate
Summary of the method: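 Activity was read as ADP formed, detected by ADP-Glo luminescence after the reaction of 5 ng recombinant human HPK1 with MBP and ATP (stocks 0.5 μg/μl and 25 μM) for 40 min at 30 °C. Buffer was Tris pH 7.5 with MgCl2, BSA and DTT, with compound in 0.5% DMSO. IC50 came from inhibition curves.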

[1] = system: human peripheral blood pan T cells; experiment: IFNγ and IL-2 analysis of human peripheral pan T cells; assay type: cell-based; conditions: T-cell, CD3/CD28 bead stimulation, 100 nM Prostaglandin E2, 24 hr
Summary of the method: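 Human peripheral blood pan T cells (8×10^4) were preincubated 1 h with compounds plus 100 nM PGE2. They were then activated with anti-CD3/CD28 Dynabeads at a 1:3 cell:bead ratio. IFNγ and IL-2 were measured on a Meso Scale Discovery platform.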

[2] = IFNγ secretion, read-out: IFNγ (EC50)
[3] = IL-2 secretion, read-out: IL-2 (EC50)

recombinant human HPK1, sequence (Q92918 whole entry): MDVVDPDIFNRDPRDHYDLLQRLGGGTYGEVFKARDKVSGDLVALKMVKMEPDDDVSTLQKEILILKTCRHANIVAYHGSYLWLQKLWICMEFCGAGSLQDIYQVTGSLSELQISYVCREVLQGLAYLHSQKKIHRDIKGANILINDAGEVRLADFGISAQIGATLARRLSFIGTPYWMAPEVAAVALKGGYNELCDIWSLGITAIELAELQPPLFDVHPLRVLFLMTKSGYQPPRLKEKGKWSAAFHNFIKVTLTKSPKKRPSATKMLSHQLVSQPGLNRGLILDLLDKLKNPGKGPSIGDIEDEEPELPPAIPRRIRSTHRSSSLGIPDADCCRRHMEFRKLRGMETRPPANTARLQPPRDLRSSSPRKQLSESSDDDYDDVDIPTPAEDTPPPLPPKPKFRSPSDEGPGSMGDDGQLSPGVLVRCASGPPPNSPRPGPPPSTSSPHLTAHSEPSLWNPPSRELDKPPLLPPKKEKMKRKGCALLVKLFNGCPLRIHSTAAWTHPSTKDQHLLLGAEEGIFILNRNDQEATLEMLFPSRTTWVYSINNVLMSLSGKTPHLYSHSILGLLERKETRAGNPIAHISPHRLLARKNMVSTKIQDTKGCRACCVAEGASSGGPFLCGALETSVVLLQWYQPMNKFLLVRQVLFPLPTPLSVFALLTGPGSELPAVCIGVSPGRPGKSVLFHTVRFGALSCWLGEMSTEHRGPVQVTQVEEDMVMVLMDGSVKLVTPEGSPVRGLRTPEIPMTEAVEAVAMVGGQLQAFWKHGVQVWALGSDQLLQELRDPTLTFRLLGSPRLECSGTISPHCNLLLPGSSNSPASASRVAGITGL

| SMILES | IC50 (recombinant human HPK1) | EC50 [1, 2] | EC50 [1, 3] |
| --- | --- | --- | --- |
| CSc1c(F)cc2[nH]ncc2c1-c1ccn2nc(NC(=O)C3CC3)cc2c1 [Example 569, N-(5-(6-fluoro-5-(methylthio)-1H-indazol-4-yl)pyrazolo[1,5-a]pyridin-2-yl)cyclopropanecarboxamide] | < 100 nM | 200 to 1000 nM | > 1000 nM |
| Cc1c(F)c(C(=O)N(C)C)c2[nH]ncc2c1-c1ccn2nc(NC(=O)[C@@H]3C[C@@H]3F)cc2c1 [Example 570, 6-fluoro-4-(2-((1S,2S)-2-fluorocyclopropane-1-carboxamido)pyrazolo[1,5-a]pyridin-5-yl)-N,N,5-trimethyl-1H-indazole-7-carboxamide] | < 100 nM | < 200 nM | 200 to 1000 nM |
| CCN(C)c1c(F)c(SC)c(-c2ccn3nc(NC(=O)[C@@H]4C[C@@H]4F)cc3c2)c2cn[nH]c12 [Example 577, (1S,2S)-N-(5-(7-(ethyl(methyl)amino)-6-fluoro-5-(methylthio)-1H-indazol-4-yl)pyrazolo[1,5-a]pyridin-2-yl)-2-fluorocyclopropane-1-carboxamide] | < 100 nM | < 200 nM | 200 to 1000 nM |
| Cc1c(F)c(Cl)c(-c2ccn3nc(NC(=O)[C@@H]4C[C@@H]4F)cc3c2)c2cn[nH]c12 [Example 579, (1S,2S)-N-(5-(5-chloro-6-fluoro-7-methyl-1H-indazol-4-yl)pyrazolo[1,5-a]pyridin-2-yl)-2-fluorocyclopropane-1-carboxamide] | < 100 nM | < 200 nM | > 1000 nM |
| CCc1c(F)c(SCC#N)c2[nH]ncc2c1-c1ccn2nc(NC(=O)[C@@H]3C[C@@H]3F)cc2c1 [Example 588, (1S,2S)-N-(5-(7-((cyanomethyl)thio)-5-ethyl-6-fluoro-1H-indazol-4-yl)pyrazolo[1,5-a]pyridin-2-yl)-2-fluorocyclopropane-1-carboxamide] | < 100 nM | < 200 nM | < 200 nM |

Now from value to molecule:

| IC50 (recombinant human HPK1) | EC50 [1, 2] | EC50 [1, 3] | SMILES |
| --- | --- | --- | --- |
| < 100 nM | 200 to 1000 nM | 200 to 1000 nM | CCN(C)c1c(F)c(C)c(-c2ccn3nc(NC(=O)[C@@H]4C[C@@H]4F)cc3c2)c2cn[nH]c12 [Example 563, (1S,2S)-N-(5-(7-(ethyl(methyl)amino)-6-fluoro-5-methyl-1H-indazol-4-yl)pyrazolo[1,5-a]pyridin-2-yl)-2-fluorocyclopropane-1-carboxamide] |
| < 100 nM | 200 to 1000 nM | 200 to 1000 nM | CCN(C)c1c(F)c(Cl)c(-c2ccn3nc(NC(=O)[C@@H]4C[C@@H]4F)cc3c2)c2cn[nH]c12 [Example 564, (1S,2S)-N-(5-(5-chloro-7-(ethyl(methyl)amino)-6-fluoro-1H-indazol-4-yl)pyrazolo[1,5-a]pyridin-2-yl)-2-fluorocyclopropane-1-carboxamide] |
| < 100 nM | 200 to 1000 nM | 200 to 1000 nM | CN(C)c1c(F)c(C(F)(F)F)c(-c2ccn3nc(NC(=O)[C@@H]4C[C@@H]4F)cc3c2)c2cn[nH]c12 [Example 565, (1S,2S)-N-(5-(7-(dimethylamino)-6-fluoro-5-(trifluoromethyl)-1H-indazol-4-yl)pyrazolo[1,5-a]pyridin-2-yl)-2-fluorocyclopropane-1-carboxamide] |
